Consider 41 molecules from US11584765B2 (priority 2017, dated 2023).

Structures are written as SMILES. Some results are limits rather than exact numbers.

In the test the test system is C57BL/6 mice. In words: animal or person. In kind it is in vivo. To be noted: Mus musculus, sc, 0.5 h, s.c. administration, 30 min, 55° C. water, read-out: ED50 (mg/kg) at 30 min on C57BL/6 mice in Warm-water Tail-flick Test.
Regarding `CC(=O)Nc1ccc(CN2CCC(CCc3ccccc3)(Cc3ccccn3)CC2)cc1` [Compound 39, N-(4-((4-phenethyl-4-(pyridin-2-ylmethyl)piperidin-1-yl)methyl)phenyl)acetamide], the ED50 was more than 10 mg/kg. The same measure for `CC(=O)Nc1ccc(CN2CCC(/C=C/c3ccccc3)(c3ccncc3)CC2)cc1` [Compound 40, (E)-N-(4-((4-(pyridin-4-yl)-4-styrylpiperidin-1-yl)methyl)phenyl)acetamide]: more than 10 mg/kg; for `Nc1ccc(CN2CCC(CCc3ccccc3)(c3ccccn3)CC2)cc1` [Compound 41, 4-((4-phenethyl-4-(pyridin-2-yl)piperidin-1-yl)methyl)aniline]: more than 10 mg/kg; for `CC(=O)Nc1ccc(CN2CCC(C(=O)c3ccccc3)(c3ccccn3)CC2)cc1` [Compound 42, N-(4-((4-benzoyl-4-(pyridin-2-yl)piperidin-1-yl)methyl)phenyl)acetamide]: more than 10 mg/kg. The same measure for `CC(=O)N(C)c1ccc(CN2CCC(CCc3ccccc3)(c3ncc[nH]3)CC2)cc1` [Compound 43, N-(4-((4-(1H-imidazol-2-yl)-4-phenethylpiperidin-1-yl)methyl)phenyl)-N-methylacetamide]: more than 10 mg/kg. The value for `CC(=O)Nc1ccc(CN2CCC(/C=C/c3ccccn3)(c3ccccn3)CC2)cc1` [Compound 44, (E)-N-(4-((4-(pyridin-2-yl)-4-(2-(pyridin-2-yl)vinyl)piperidin-1-yl)methyl)phenyl)acetamide] was more than 10 mg/kg; that for `CC(=O)Nc1ccc(CN2CCC(c3ccccn3)(C(O)c3ccccc3)CC2)cc1` (centres unmarked) [Compound 45, N-(4-((4-(hydroxy(phenyl)methyl)-4-(pyridin-2-yl)piperidin-1-yl)methyl)phenyl)acetamide] was more than 10 mg/kg.

Turning to `CC(=O)Nc1ccc(CN2CCC(/C=C/Cc3ccccc3)(c3ccccn3)CC2)cc1` [Compound 46, (E)-N-(4-((4-(3-phenylprop-1-enyl)-4-(pyridin-2-yl)piperidin-1-yl)methyl)phenyl)acetamide], the ED50 was more than 10 mg/kg. The value for `CC(=O)Nc1ccc(CN2CCC(/C=C/c3ccccc3)(c3cccc(F)n3)CC2)cc1` [Compound 47, (E)-N-(4-((4-(6-fluoropyridin-2-yl)-4-styrylpiperidin-1-yl)methyl)phenyl)acetamide] was more than 10 mg/kg; that for `CC(=O)Nc1ccc(CN2CCC(/C=C/c3ccccc3)(c3cccnc3)CC2)cc1` [Compound 48, (E)-N-(4-((4-(pyridin-3-yl)-4-styrylpiperidin-1-yl)methyl)phenyl)acetamide] was more than 10 mg/kg. With `C=CCC1(c2ccccn2)CCN(Cc2ccc(NC(C)=O)cc2)CC1` [Compound 49, N-(4-((4-allyl-4-(pyridin-2-yl)piperidin-1-yl)methyl)phenyl)acetamide], the ED50 was more than 10 mg/kg. The value for `O=C(Nc1ccc(CN2CCC(CCc3ccccc3)(c3ccccn3)CC2)cc1)C(F)(F)F` [Compound 50, 2,2,2-trifluoro-N-(4-((4-phenethyl-4-(pyridin-2-yl)piperidin-1-yl)methyl)phenyl)acetamide] was more than 10 mg/kg; that for `CC(=O)Nc1ccc(CN2CCC(CCc3ccccc3)(c3ccccn3)CC2)cc1F.Cl` [Compound 52, N-(2-fluoro-4-((4-phenethyl-4-(pyridin-2-yl)piperidin-1-yl)methyl)phenyl)acetamide HCl] was more than 10 mg/kg; that for `CC(=O)Nc1ccc(CN2CCC(CCc3ccccc3)(c3ccccn3)CC2)c(F)c1` [Compound 53, N-(3-fluoro-4-((4-phenethyl-4-(pyridin-2-yl)piperidin-1-yl)methyl)phenyl)acetamide] was more than 10 mg/kg. The same measure for `CNC(=O)c1ccc(CN2CCC(CCc3ccccc3)(c3ccccn3)CC2)cc1` [Compound 54, N-methyl-4-((4-phenethyl-4-(pyridin-2-yl)piperidin-1-yl)methyl)benzamide]: more than 10 mg/kg; for `NC(=O)c1ccc(CN2CCC(CCc3ccccc3)(c3ccccn3)CC2)cc1` [Compound 55, 4-((4-phenethyl-4-(pyridin-2-yl)piperidin-1-yl)methyl)benzamide]: more than 10 mg/kg; for `CC(=O)Nc1ccc(CN2CCC(CCc3ccccc3)(CN(C)C)CC2)cc1` [Compound 56, N-(4-((4-((dimethylamino)methyl)-4-phenethylpiperidin-1-yl)methyl)phenyl)acetamide]: more than 10 mg/kg. For the molecule `CC(=O)Nc1ccc(CN2CCC(CCc3ccccc3)(CN(C)C(C)=O)CC2)cc1` [Compound 57, N-((1-(4-acetamidobenzyl)-4-phenethylpiperidin-4-yl)methyl)-N-methylacetamide], the ED50 was more than 10 mg/kg. The same measure for `CC(=O)Nc1ccc(CN2CCC(CCc3ccccc3)(COC(C)=O)CC2)cc1` [Compound 58, (1-(4-acetamidobenzyl)-4-phenethylpiperidin-4-yl)methyl acetate]: more than 10 mg/kg. The value for `CCOCC1(CCc2ccccc2)CCN(Cc2ccc(NC(C)=O)cc2)CC1` [Compound 59, N-(4-((4-(ethoxymethyl)-4-phenethylpiperidin-1-yl)methyl)phenyl)acetamide] was less than 10 mg/kg. The same measure for `CC(=O)Nc1ccc(CN2CCC(CCc3ccccc3)(C(N)=O)CC2)cc1` [Compound 60, 1-(4-acetamidobenzyl)-4-phenethylpiperidine-4-carboxamide]: more than 10 mg/kg. As to `Oc1ccc(CN2CCC(CCc3ccccc3)(c3ccccn3)CC2)cc1` [Compound 61, 4-((4-phenethyl-4-(pyridin-2-yl)piperidin-1-yl)methyl)phenol], the ED50 was more than 10 mg/kg. The same measure for `COc1ccc(C2(/C=C/c3ccccc3)CCN(Cc3ccc(NC(C)=O)cc3)CC2)nc1` [Compound 62, (E)-N-(4-((4-(5-methoxypyridin-2-yl)-4-styrylpiperidin-1-yl)methyl)phenyl)acetamide]: more than 10 mg/kg; for `COc1ccc(C2(/C=C\c3ccccc3)CCN(Cc3ccc(NC(C)=O)cc3)CC2)nc1` [Compound 63, (Z)-N-(4-((4-(5-methoxypyridin-2-yl)-4-styrylpiperidin-1-yl)methyl)phenyl)acetamide]: more than 10 mg/kg; for `CS(=O)(=O)N(c1ccc(CN2CCC(CCc3ccccc3)(c3ccccn3)CC2)cc1)S(C)(=O)=O` [Compound 64, N-(methylsulfonyl)-N-(4-((4-phenethyl-4-(pyridin-2-yl)piperidin-1-yl)methyl)phenyl)methane-sulfonamide]: more than 10 mg/kg. Turning to `CNC(=O)C1(CCc2ccccc2)CCN(Cc2ccc(NC(C)=O)cc2)CC1` [Compound 65], the ED50 is more than 10 mg/kg. As to `CC(=O)Nc1ccc(CN2CCC(CCc3ccccc3)(C(=O)N(C)C)CC2)cc1` [Compound 66, 1-(4-acetamidobenzyl)-N,N-dimethyl-4-phenethylpiperidine-4-carboxamide], the ED50 was more than 10 mg/kg.

Consider `CC(=O)NCC1(CCc2ccccc2)CCN(Cc2ccc(NC(C)=O)cc2)CC1` [Compound 67, N-((1-(4-acetamidobenzyl)-4-phenethylpiperidin-4-yl)methyl)acetamide], for which the ED50 was more than 10 mg/kg.

Take `CC(=O)Nc1ccc(CN2CCC(CO)(CCc3ccccc3)CC2)cc1` [Compound 68, N-(4-((4-(hydroxymethyl)-4-phenethylpiperidin-1-yl)methyl)phenyl)acetamide]: the ED50 was more than 10 mg/kg. For `CC(=O)Nc1ccc(CN2CCC(CCc3ccccc3)(C3CCCO3)CC2)cc1` (centres unmarked) [Compound 69, N-(4-((4-phenethyl-4-(tetrahydrofuran-2-yl)piperidin-1-yl)methyl)phenyl)acetamide], the ED50 was less than 10 mg/kg. For the molecule `CC(=O)Nc1ccc(CN2CCC(CCc3ccccc3)(C3CCCCO3)CC2)cc1` (centres unmarked) [Compound 70, N-(4-((4-phenethyl-4-(tetrahydro-2H-pyran-2-yl)piperidin-1-yl)methyl)phenyl)acetamide], the ED50 was more than 10 mg/kg.

Consider `CC(=O)Nc1ccc(CN2CCCC(/C=C/c3ccccc3)(c3ccccn3)C2)cc1` (centres unmarked) [Compound 71, (E)-N-(4-((3-(pyridin-2-yl)-3-styrylpiperidin-1-yl)methyl)phenyl)acetamide], for which the ED50 is more than 10 mg/kg. The value for `COCC1(CCc2ccccc2)CCN(Cc2ccc(NC(C)=O)cc2)CC1` [Compound 72, N-(4-((4-(methoxymethyl)-4-phenethylpiperidin-1-yl)methyl)phenyl)acetamide] was more than 10 mg/kg; that for `CC(=O)Nc1ccc(CN2CCC(CCc3ccccc3)(C3CC=CCO3)CC2)cc1` (centres unmarked) [Compound 73, N-(4-((4-(3,6-dihydro-2H-pyran-2-yl)-4-phenethylpiperidin-1-yl)methyl)phenyl)acetamide] was more than 10 mg/kg; that for `CC(=O)Nc1ccc(CN2CCC(CCc3ccccc3)(C3C=CCO3)CC2)cc1` (centres unmarked) [Compound 74, N-(4-((4-(2,5-dihydrofuian-2-yl)-4-phenethylpiperidin-1-yl)methyl)phenyl)acetamide] was less than 10 mg/kg. The same measure for `COC1(CCc2ccccc2)CCN(Cc2ccc(NC(C)=O)cc2)CC1` [Compound 75, N-(4-((4-methoxy-4-phenethylpiperidin-1-yl)methyl)phenyl)acetamide]: more than 10 mg/kg; for `COCCC1(CCc2ccccc2)CCN(Cc2ccc(NC(C)=O)cc2)CC1.Cl` [Compound 76, N-(4-((4-(2-methoxyethyl)-4-phenethylpiperidin-1-yl)methyl)phenyl)acetamide HCl]: more than 10 mg/kg; for `CCOC(=O)NCC1(CCc2ccccc2)CCN(Cc2ccc(NC(C)=O)cc2)CC1` [Compound 77, ethyl (1-(4-acetamidobenzyl)-4-phenethylpiperidin-4-yl)methylcarbamate]: more than 10 mg/kg.

As for `CCOCC1(CCc2ccccc2)CCN(Cc2ccccc2)CC1` [Compound 78, 1-benzyl-4-(ethoxymethyl)-4-phenethylpiperidine], the ED50 is more than 10 mg/kg. In the case of `CCOCC1(CCc2ccccc2)CCN(C)CC1` [Compound 79, 4-(ethoxymethyl)-1-methyl-4-phenethylpiperidine], the ED50 is more than 10 mg/kg. The same measure for `C=CCN1CCC(CCc2ccccc2)(COCC)CC1` [Compound 80, 1-allyl-4-(ethoxymethyl)-4-phenethylpiperidine]: more than 10 mg/kg.
